According to publication PMC11788822, “Uncovering the potent antimicrobial activity of squaramide based anionophores – chloride transport and membrane disruption” (Chemical Science, 2025):
“And” between values parts separate entries of the source, which are not always exact repeats. Equal entries are not always repeated.

Experiments:
[1] = set-up: method as in doi:10.1021/jo01097a026; settings: for the relevant substitution pattern; cited from earlier work
S. aureus = test: Growth inhibition assay, S. aureus; type: cell-based, Staphylococcus aureus; settings: 24 h, growth (OD 600 nm) relative to control, 37 °C; for IC80 / IC50: Staphylococcus aureus
Method: (§1) To determine IC50/80 values, growth (optical density) of S. aureus, methicillin-resistant S. aureus (MRSA), P. aeruginosa, and K. pneumoniae when treated with a range of concentrations of each active compound in vitro was measured at 600 nm after a 24 h incubation period at 37 °C. Each compound was studied for activity below […], and those showing little activity above 200 μM, were noted as such, and omitted from further study.
Staphylococcus aureus culture conditions
S. aureus (ATCC33951) was cultured at 37 °C in Nutrient broth (Oxoid), in an orbital shaker at 200 rpm. Stocks were kept on nutrient agar, stored at 4 °C for up to 2 months, or as glycerol stocks (50/50 glycerol:culture), stored at -70 °C indefinitely. […]
(§2) Bacterial cultures were brought to early stationary phase overnight, in nutrient broth (containing 25/50 µg/mL Ampicillin for MRSA/K. pneumoniae, respectively) at 37 °C. Cultures were diluted to an OD600 = 0.01. Aliquots of Culture (100 µl) were added to 100 µL serially diluted compound (200 – 0.78 µM) in nutrient broth in a 96-well plate (Sarstedt, Germany).
(§3) Plates were incubated at 37 °C for 24 h and growth was measured at 600 nm, where growth was measured and represented relative to control. […]

[2] = Lucigenin Cl−/NO3− exchange assay in LUVs; settings: Cl− transport, 0.4 mM POPC/cholesterol 7:3 LUVs, Hill fit at 270 s
Method: Given our objective was to use such transport behaviour as a method to disrupt anion homeostasis in bacteria, we also conducted anion transport assays in Large Unilamellar Liposomes (LUVs) using the well-established Lucigenin-based Cl^−/NO3^− exchange assay.[40] Briefly, LUVs containing the chloride sensitive dye lucigenin in a NaNO3 solution were prepared and a NaCl pulse was added to create a chloride concentration gradient. Upon addition of the putative transporter, the quenching of the fluorescence of lucigenin was monitored over time to assess Cl^− influx.
Lucigenin Cl-/NO3- anion exchange assay
LUV preparation and Lucigenin assays were carried out following procedures outlined by Valkenier and co-workers.8 Large unilamellar liposomes (LUVs) were synthesized using 1-palmitoyl-2-oleoyl-sn-glycero-3-phosphocholine (POPC)(11.2 µmol, soln. in CHCl3) and Cholesterol (4.8 µmol) mixed in a ratio of 7:3. This mixture was brought to dryness under gentle vacuum and subsequently, the mixture was rehydrated in an aqueous Lucigenin solution (1 mL, 0.8mM lucigenin in 225 mM NaNO3) and stirred for 1 h to obtain heterogeneous vesicles. After that, the vesicles underwent 9 freeze-thaw cycles and were extruded through a […] polycarbonate membrane 29 times to obtain monodisperse LUVs. A Sephadex G-100 size-exclusion column was employed to remove any unencapsulated lucigenin. The collected liposomes were diluted to 40 mL with 225 mM NaNO3 to obtain a homogeneous 0.4 mM liposome solution. Lucigenin fluorescence quenching was monitored in a time dependent manner using an Agilent Spectrofluorimeter to access Cl- influx (λ ex = 430 nm, λem = 505 nm).
Cl- transport behaviour was initiated at t=0 s by adding each compound as a solvate in DMSO followed by a 25 mM NaCl pulse (75µL, 1 M NaCl in […] NaNO3) to a 3 mL liposome solution. The data was collected for at least 600 s and then Triton X-100 (5% w/w in water) was added to lyse the liposomes, and normalize to 100% efflux. The recorded data was normalised and the fraction fluorescence intensity at 270 s of each tested concentration of transporters (mol%) was plotted against transporter concentration (mol%). The data obtained was fitted to the Hill equation to obtain the EC50 value at 270 s (the concentration to obtain the half maximum effect) by using Originlab 2024b or Graphpad Prism 10:
y = START + (END ‒ START) ∗ xn/(kn + xn)
Where n is the Hill coefficient, k presents the EC 50 value.

[3] = tested on: panel of Gram-positive and -negative pathogens; test: Zone of inhibition assay; type: cell-based; settings: 5 μL of 1 mM stock on nutrient agar, 37 °C, 24 h; radius ≤ 2 mm deemed not active
Method: To do this, a zone of inhibition assay was used as a qualitative measure of activity. To do so, 5 μL of a 1 mM stock of the respective compound was pipetted atop nutrient agar which was previously spread with a panel of Gram-positive and -negative pathogens of interest. Following incubation at 37 °C for 24 h, zones of inhibition were measured and recorded for each compound. Zones with a radius ≤ 2 mm were deemed as not active, and thus eliminated from further study.

[4] = 1H NMR titration with TBACl, Cl− binding; settings: association constant towards Cl−, compound 2.5 mM, 95% DMSO-d6, 1:1 binding model (Bindfit), errors below 10%
Method: To verify if 1–6 formed host–guest complexes with Cl^− in solution, ^1H NMR titrations of each compound (2.5 mM) with TBACl were carried out in DMSO-d6. Increasing equivalents of Cl^− were incrementally added, with spectral information obtained upon addition of each molar equivalent of Cl^−. […] Taking 1 as an example (Fig. 2), upon addition of sequential aliquots of Cl^− there is a clear downfield shift of both squaramide NHs, with minor contributions to the binding cleft derived from the ortho-aryl protons of the aniline of 1. The binding data from each titration was fitted to a 1 : 1 binding model using the Bindfit[36] open access software, and the results are tabulated below (Table 1), alongside the respective Hammett constant for the relevant substitution pattern.[37] […] This aligns with previously reported receptors,[38] where compounds containing CF3 substituents in particular are known to have increased anion binding affinity as well as transport ability.[39]

[5] = tested on: methicillin-resistant S. aureus (MRSA); test: Growth inhibition assay, MRSA; type: cell-based, Staphylococcus aureus; settings: 24 h; for IC50 / IC80: Staphylococcus aureus, MRSA; for IC50: read-out: MRSA IC50, growth (OD 600 nm) relative to control, 24 h, 37 °C; for IC80: read-out: MRSA IC80, growth (OD 600 nm) relative to control, 24 h, 37 °C; for MRSA IC50: growth (OD 600 nm) relative to control, 37 °C
Method: as §1
Staphylococcus aureus culture conditions […]
Methicillin-resistant Staphylococcus aureus culture conditions
Methicillin-resistant S. aureus (clinical isolate – St. James’ University Hospital, Dublin) was cultured at 37 °C in Nutrient broth (Oxoid), containing 25 µg/mL Ampicillin in an orbital shaker at 200 rpm. Stocks were kept on nutrient agar containing 25 µg/mL Ampicillin, stored at 4 °C for up to 2 months, or as glycerol stocks (50/50 glycerol:culture), stored at -70 °C indefinitely. […]
as §2, §3

Compound | Hammett parameter (σ) [1] | IC80 (S. aureus) | IC50 (S. aureus) | S. aureus IC50 (S. aureus) | EC50 (mol%) [2] | zone of inhibition, qualitative measure of activity [3] | K a [4] | IC50 [5] | IC80 [5] | MRSA IC50 [5]
O=c1c(Nc2ccc(Cl)cc2)c(NC23CC4CC(CC(C4)C2)C3)c1=O [Compound 3] | 0.23 | > 200 µM | > 200 µM | lay outside the concentration range tested | 0.2597 mol% and 0.260 mol% | promising bioactivity | 207 M⁻¹ | > 200 µM | > 200 µM | lay outside the concentration range tested
O=c1c(Nc2ccccc2Cl)c(NC23CC4CC(CC(C4)C2)C3)c1=O [Compound 5] |  | > 200 µM | > 200 µM | lay outside the concentration range tested | 1.349 mol% | promising bioactivity | 44 M⁻¹ | > 200 µM | > 200 µM | lay outside the concentration range tested
O=c1c(Nc2ccccc2)c(NC23CC4CC(CC(C4)C2)C3)c1=O [Compound 6] | 0.0 | > 200 µM | > 200 µM | lay outside the concentration range tested |  |  | 138 M⁻¹ | > 200 µM | > 200 µM | lay outside the concentration range tested
